Converted amounts (≈) assume the structure as drawn. The source made the active and inactive calls. No cut-off for these calls is given here.

Our source for the MIC and Activity values is ChEMBL document CHEMBL1132162, “Microanalysis of a selective potent anti-Helicobacter pylori compound in a Brazilian medicinal plant, Myroxylon peruiferum and the activity of analogues” (1999).

Assay [1] has as its system Helicobacter pylori. The experiment in a line: Anti-bacterial activity against Helicobacter pylori. It counts as functional.
For assay [2], the system named is Saccharomyces cerevisiae. Put plainly: Anti-microbial activity against yeast Saccharomyces cerevisiae at 625 ug/mL concentration; Inactive. In kind it is functional, organism-based.
For assay [3], the system named is Escherichia coli. Put plainly: Anti-microbial activity against gram-negative bacteria Escherichia coli at 625 ug/mL concentration; Inactive. In kind it is functional, organism-based.
Assay [4] has as its system Pseudomonas aeruginosa. Put plainly: Anti-microbial activity against gram-negative bacteria Pseudomonas aeruginosa at 625 ug/mL concentration; Inactive. It counts as functional, organism-based.
Assay [5] has as its system Micrococcus luteus. Put plainly: Anti-microbial activity against gram-positive bacteria Micrococcus lutea at 625 ug/mL concentration; Inactive. It counts as functional, organism-based.
The test system of assay [6] is Bacillus subtilis. The experiment in a line: Anti-microbial activity against gram-positive bacteria Bacillus subtilis at 625 ug/mL concentration; Inactive. It counts as functional, organism-based.
Assay [7] has as its system Candida albicans. Put plainly: Anti-microbial activity against yeast candida albicans at 625 ug/mL concentration; Inactive. In kind it is functional, organism-based.
Assay [8] concerns Bacteroides fragilis. Put plainly: Anti-microbial activity against gram-positive bacteria Bacteroides fragilis at 625 ug/mL concentration; Inactive. It counts as functional, organism-based.

`COc1ccc(CC(=O)c2ccc(OC)cc2)cc1`: the MIC in assay [1] is over 20 µg/mL.

On to `O=c1ccoc2ccccc12` [CHROMONE], for which, in assay [1], the MIC was over 20 µg/mL. As for `COc1ccc(-c2coc3cc(OC)cc(OC)c3c2=O)cc1` [BIOCHANIN A, DIMETHYL ETHER], the MIC in assay [1] is over 20 µg/mL.

Compound `O=c1c(-c2ccc(O)c(O)c2)coc2cc(O)ccc12` yielded an MIC in assay [1] of over 20 µg/mL.

`COc1ccc(-c2coc3cc(OC)ccc3c2=O)cc1` showed a minimal inhibitory concentration (MIC) in assay [1] of over 20 µg/mL. For the compound `COc1ccc2c(=O)c(-c3ccc(OC)c(OC)c3)coc2c1`, the outcome in assay [2], in assay [3], in assay [4], in assay [5], in assay [6] and in assay [7] was inactive. Further, the result in assay [8] was inactive. In assay [1], the MIC was determined as 7.8 µg/mL (≈ 25 µM).

`COc1ccc2c(c1)OC=C(c1ccc(OC)c(OC)c1)[C@H]2O` gave an MIC in assay [1] of 16 µg/mL (≈ 50.9 µM).

`COc1ccc(C)cc1OC` yielded a minimal inhibitory concentration (MIC) in assay [1] of over 20 µg/mL. With `COc1ccc2c(c1)OCC(c1ccc(OC)c(OC)c1)C2=O` (stereo not given), the MIC in assay [1] is over 20 µg/mL.

`COc1ccc(-c2coc3cc(OC)c(OC)cc3c2=O)cc1` gave an MIC in assay [1] of over 20 µg/mL.

In assay [1], `COc1ccc2c(=O)cc(-c3ccc(OC)c(OC)c3)oc2c1` [7,3',4'-Trimethoxyflavone] came in with a minimal inhibitory concentration (MIC) of over 20 µg/mL. Turning to `COc1ccc2c(c1)OC=C(c1ccc(OC)c(OC)c1)[C@@H]2O`, in assay [1], the MIC was found to be 16 µg/mL (≈ 50.9 µM).

Regarding `CCOc1ccc2c(=O)c(-c3ccc(OCC)c(OCC)c3)coc2c1`, in assay [1], the lowest concentration to inhibit growth (MIC) was 18 µg/mL (≈ 50.8 µM). This MIC and that of the compound before are within 1.5-fold of each other.

In general, MIC refers to the least concentration at which growth counts as inhibited. A low value points to greater potency.
